Where two headings read alike, the source gives them in different places.
Experiments:
[1] = Stability in the perfusion solution (transport medium) at 37 °C; type: physicochemical; conditions: for Presence of degradation products / derivatives in the perfusion solution (stability study): OLEA in transport medium, 60 min
Experimental: The transport medium (TM; pH 7, 9.7 g/L HBSS buffered with HEPES 10 mM) was used to infuse the compounds via the intestine. […] Red phenol was assayed at 0.1 mg/mL. The stability of these test compounds, sampled at different times, was monitored in the perfusion solution at 37 °C for 60 min. Stability study and lumen samples: The stability and perfusate OLEA samples were defrosted and centrifuged (11,000× g, 4 °C, 10 min), and 100 µL of the upper phase was transferred to vials for analysis.

[2] = Metabolite profiling in lumen, plasma and ileum tissue after SPIP (LC–ESI–LTQ–Orbitrap–MS); type: in vivo
Experimental: The SPIP studies were performed in anesthetized rats according to the method described by López-Yerena and coworkers; the donor blood and surgical procedure (Figure 1) were as described in that study. Regarding the procedure of donor blood, the rats were anesthetized by isoflurane inhalation (2.5%), and the whole blood was collected via cardiac puncture. […]. In the case of the rats that underwent surgery, the rats received intraperitoneal administration of pentobarbital sodium (Dolethal) at a dose of 60 mg/kg, and a maintenance dose of isoflurane (1.5%) was given 50 min after the induction dose. Body temperature was maintained at 37 ± 0.5 °C throughout the experiment by means of a homeothermic blanket. An ileal segment of approximately 7–10 cm was cannulated. […] The phenol red included in the perfusion solution was used as non-absorbable marker for measuring water transport. To avoid the oxidation of OLEA, we carried out the SPIP experiments in a laboratory room with infrared light. Samples of both the intestinal lumen and mesenteric blood were collected simultaneously at 5 min intervals for 60 min. The outflow perfusate samples were collected in 2 mL amber vials and the blood was collected in pre-weighed lithium-heparinized tubes (BD Vacutainer). Next, the perfusate samples were centrifuged (7516× g for 10 min at 4 °C), and the tubes with blood samples were weighed and centrifuged (3000× g for 10 min at 4 °C). The supernatants were collected and immediately stored at −80 °C awaiting analysis by LC–ESI–LTQ–Orbitrap–MS.
Plasma: The extraction of OLEA and its metabolites was carried out with protein precipitation. Initially, the samples were thawed and centrifuged (11,000× g, 10 min at 4 °C). To precipitate proteins, we blended 100 µL of plasma with cold acetonitrile containing 2% of formic acid (1:5 v/v). Samples were vortex-mixed for 1 min and kept at −20 °C for 20 min. The samples were then centrifuged (11,000× g, 4 °C, 10 min), and finally 100 µL of the supernatant was transferred to vials for analysis.
Stability study and lumen samples: The stability and perfusate OLEA samples were defrosted and centrifuged (11,000× g, 4 °C, 10 min), and 100 µL of the upper phase was transferred to vials for analysis. […].
Ileum tissue: The intestinal segment perfunded with OLEA in the SPIP experiments was also analyzed to quantify the OLEA and its metabolites retained in the tissue. First, the intestinal segment was rinsed by several perfusions with TM and then cut into small sections and homogenized after the addition of water/acetonitrile (1:1 (v/v) with 0.1% ascorbic acid) with a small tissue disruptor (T10 basic ULTRA-TURRAX®, IKA laboratory technology, Staufen, Germany). The samples were sonicated in an ice bath (5 min), shaken for 1 min, and centrifuged (11,000× g, 4 °C, 10 min). To precipitate proteins, we blended 100 µL of the upper layer with cold acetonitrile containing 2% of formic acid (1:3 v/v). Samples were vortex-mixed for 1 min, kept at −20 °C for 20 min, and centrifuged again (11,000× g, 4 °C, 10 min) before analyzing the supernatant.
The quantification of OLEA and red phenol in the samples and the profiling and structural characterization of OLEA metabolites was carried out using LC–ESI–LTQ–Orbitrap–MS. LC separation was performed using an Accela chromatograph (Thermo Scientific, Hemel Hempstead, UK) equipped with a quaternary pump, a photodiode array detector, and a thermostated autosampler. A 5-μL sample aliquot was injected onto an Acquity^TM UPLC® BEH C18 Column (2.1 × 100 mm, i.d., 1.7 µm particle size) coupled to an Acquity^TM UPLC® BEH C18 Pre-Column (2.1 × 5 mm, i.d., 1.7 µm particle size) (Waters Corporation®, Wexford, Ireland) with the column temperature set at 50 °C. Eluent A was 0.05% (v/v) formic acid in water, and eluent B was 0.05% formic acid in methanol. […]. […]

[3] = cited from earlier work
[4] = Single-pass intestinal perfusion (SPIP) with mesenteric blood sampling: permeability and absorption; type: in vivo; conditions: ileum, SPIP in rats
Experimental: The transport medium (TM; pH 7, 9.7 g/L HBSS buffered with HEPES 10 mM) was used to infuse the compounds via the intestine. […] Red phenol was assayed at 0.1 mg/mL. The stability of these test compounds, sampled at different times, was monitored in the perfusion solution at 37 °C for 60 min.
Differences were considered significant at p < 0.05.

[5] = cited from earlier work; remark: listed apart in the source
[6] = parameters: method as in PMID 26904279; conditions: oral administration 300 mg/kg in rats; cited from earlier work
[7] = after OLEA perfusion (SPIP, 60 min)

In the case of `OCCc1ccc(O)c(O)c1` [M2, hydroxytyrosol], the “Presence of degradation products / derivatives in the perfusion solution (stability study)” value [1] is reported as “absence”, the “Detection in lumen, plasma and ileum tissue samples” value (shortened to “Detection in lumen”) ([2]; rat, in vivo) is reported as “found in lumen, plasma, and ileum tissue” and the “Time of highest concentration” value ([2]; rat, in vivo) is reported as 55 min. The “Metabolite level in plasma relative to lumen (fold higher)” value ([2]; rat, in vivo, 60 min) was 27 fold.

With `C/C=C(/CO)C(CC=O)CC(=O)OCCc1ccc(O)c(O)c1` (stereo not shown) [M3] the “Detection in lumen” value [2, 7] was “detected in lumen, plasma, and ileum tissue”.

With `C/C=C(/C=O)C(CC(=O)O)CC(=O)OCCc1ccc(O)c(O)c1` (stereo not shown) [M4] the “Detection in lumen” value [2, 7] was “detected in lumen, plasma, and ileum tissue”, the “Metabolite level in plasma relative to lumen (fold higher)” value ([2]; after OLEA perfusion, at 60 min) was 29 fold and the “Time of highest concentration” value ([2]; plasma and lumen samples, after OLEA perfusion, p < 0.05) was 60 min.

In the case of `C/C=C(/C=O)C(CC(=O)OCCc1ccc(O)c(O)c1)CC(O)O` (stereo not shown) [M5], the “Presence of degradation products / derivatives in the perfusion solution (stability study)” value [1] is reported as “traces” and the “Detection in lumen” value [2, 7] is reported as “detected in lumen, plasma, and ileum tissue”.

With `C/C=C(/C=O)C(CC=O)CC(=O)OCCc1ccc(O)c(OC)c1` (stereo not shown) [M6] the “Detection in lumen” value [2, 7] was “found in ileum tissue samples but not in the plasma and lumen”.

In the case of `C/C=C(/C=O)C(CC(=O)O)CC(=O)OCCc1ccc(O)c(OC)c1` (stereo not shown) [M7], the “Detection in lumen” value [2, 7] is reported as “detected in plasma and, after being secreted by an efflux membrane protein, in lumen samples”.

With `C/C=C(/C=O)C(CC(=O)OCCc1ccc(O)c(OC)c1)CC(O)O` (stereo not shown) [M8] the “Detection in lumen” value [2, 7] was “found in ileum tissue samples but not in the plasma and lumen”.

For `CC=C(CO)C(CC=O)CC(=O)OCCc1ccc(OC2OC(C(=O)O)C(O)C(O)C2O)c(O)c1` (stereo not shown) [M9], the “Main product of phase II biotransformation” value ([2]; all the samples (plasma, lumen, ileum tissue)) was “main product of phase II biotransformation reactions in all the samples”, the “Time of highest relative abundance” value ([2]; lumen samples, after OLEA perfusion, p < 0.05) was 55 to 60 min and the “Time of highest relative abundance” value ([2]; plasma, after OLEA perfusion, p < 0.05) was 45 to 60 min.

With `CC=C(C=O)C(CC(=O)OCCc1ccc(OC2OC(C(=O)O)C(O)C(O)C2O)c(OC)c1)CC(O)O` (stereo not shown) [M11] the “Detection in lumen” value [2, 7] was “detected in lumen and ileum tissue samples but not in plasma”.

For `COc1ccc2cc([C@H](C)C(=O)O)ccc2c1` [Naproxen], the “Peff ± SD” value ([3]; Colon) is listed as 2.06 ± 1.04 × 10^−4 cm/s, the “Peff ± SD” value ([3]; Ileum, ref 56) is listed as 1.78 ± 0.52 × 10^−4 cm/s and the “Peff ± SD” value ([3]; Ileum, ref 57) is listed as 1.17 ± 0.23 × 10^−4 cm/s. The “Peff ± SD” value ([3]; Jejunum, ref 33) was 1.19 ± 0.12 × 10^−4 cm/s, the “Peff ± SD” value ([3]; Jejunum, ref 56) was 1.47 ± 0.25 × 10^−4 cm/s and the “Peff ± SD” value ([3]; Jejunum, ref 58) was 1.17 ± 0.23 × 10^−4 cm/s.

In the case of `C/C=C(/C=O)[C@@H](CC=O)CC(=O)OCCc1ccc(O)c(O)c1` [OLEA, Oleacein], the “Absorption (%)” value ([4]; mean ± SD, n = 4) is reported as 48.98 ± 12.27%, the “Mean permeability ratio (Peff) of OLEA/naproxen” value ([4]; p > 0.05) is reported as 1.24 and the Effective intestinal permeability (Peff) at 60 min ([4]; rat, pH 7, luminal disappearance, mean ± SD, n = 4, read-out: Intestinal effective permeability coefficient (Peff) ± SD) is reported as 183 ± 18 ×10⁻⁶ cm/s. The “Stability in the perfusion solution” value ([1]; over 60 min, p > 0.05) was “remained stable”, the “log P (octanol/water)” value ([5]; ref 16) was 1.02 and the “log P (octanol/water)” value ([5]; ref 60) was 1.53. For the same molecule, the “Detection in portal plasma” value [6] was “did not observe”.

For elenolic acid, the “Detection in lumen” value [2, 7] was “not detected in any sample”.
